In publication PMC6273209, “Evaluation of the Enantiomer Specific Biokinetics and Radiation Doses of [^18F]Fluspidine—A New Tracer in Clinical Translation for Imaging of σ1 Receptors” (Molecules, 2016):

Experiment: Human dosimetry estimation from ex vivo biodistribution (organ harvesting method)
Format: in vivo, CD-1 mice
Details: for OD Adrenals / OD Brain / OD Breasts / OD Gallbladder Wall / OD Heart Wall / OD Kidneys / OD LLI Wall / OD Liver / OD Lungs / OD Muscle / OD Osteogenic Cells / OD Ovaries / OD Pancreas / OD Red Marrow / OD Skin / OD Small Intestine / OD Spleen / OD Stomach Wall / OD Testes / OD Thymus / OD Thyroid / OD Total Body / OD ULI Wall / OD Urinary Bladder Wall / OD Uterus / ED Contr. Adrenals / ED Contr. Brain / ED Contr. Breasts / ED Contr. Gallbladder Wall / ED Contr. Heart Wall / ED Contr. Kidneys / ED Contr. LLI Wall / ED Contr. Liver / ED Contr. Lungs / ED Contr. Muscle / ED Contr. Osteogenic Cells / ED Contr. Ovaries / ED Contr. Pancreas / ED Contr. Red Marrow / ED Contr. Skin / ED Contr. Small Intestine / ED Contr. Spleen / ED Contr. Stomach Wall / ED Contr. Thymus / ED Contr. Thyroid / ED Contr. ULI Wall / ED Contr. Urinary Bladder Wall / ED Contr. Uterus: mouse organ harvesting; for OD Adrenals / OD Brain / OD Breasts / OD Gallbladder Wall / OD Heart Wall / OD Kidneys / OD LLI Wall / OD Liver / OD Lungs / OD Muscle / OD Osteogenic Cells / OD Ovaries / OD Pancreas / OD Red Marrow / OD Skin / OD Small Intestine / OD Spleen / OD Stomach Wall / OD Testes / OD Thymus / OD Thyroid / OD Total Body / OD ULI Wall / OD Urinary Bladder Wall / OD Uterus: scaled to human adult male model; for ED Contr. Adrenals / ED Contr. Brain / ED Contr. Breasts / ED Contr. Gallbladder Wall / ED Contr. Heart Wall / ED Contr. Kidneys / ED Contr. LLI Wall / ED Contr. Liver / ED Contr. Lungs / ED Contr. Muscle / ED Contr. Osteogenic Cells / ED Contr. Ovaries / ED Contr. Pancreas / ED Contr. Red Marrow / ED Contr. Skin / ED Contr. Small Intestine / ED Contr. Spleen / ED Contr. Stomach Wall / ED Contr. Thymus / ED Contr. Thyroid / ED Contr. ULI Wall / ED Contr. Urinary Bladder Wall / ED Contr. Uterus / ED ICRP 60 / ED: scaled to human; for ED Contr. Adrenals / ED Contr. Brain / ED Contr. Breasts / ED Contr. Gallbladder Wall / ED Contr. Heart Wall / ED Contr. Kidneys / ED Contr. LLI Wall / ED Contr. Liver / ED Contr. Lungs / ED Contr. Muscle / ED Contr. Osteogenic Cells / ED Contr. Ovaries / ED Contr. Pancreas / ED Contr. Red Marrow / ED Contr. Skin / ED Contr. Small Intestine / ED Contr. Spleen / ED Contr. Stomach Wall / ED Contr. Thymus / ED Contr. Thyroid / ED Contr. ULI Wall / ED Contr. Urinary Bladder Wall / ED Contr. Uterus / ED: ICRP 103 weighting; for ED ICRP 60 / ED: mouse, harvesting; for ED ICRP 60: ICRP 60 weighting
Experimental: Female CD-1 mice (age: 12 weeks) received an intravenous injection of (R)-(+)-[^18F]fluspidine (0.35 ± 0.08 MBq; weight: 29.8 ± 2.2 g; n = 28) or (S)-(−)-[^18F]fluspidine (0.39 ± 0.05 MBq; weight: 29.3 ± 1.9 g; n = 22). Two to three animals per time point were sacrificed by cervical dislocation at 5, 15, 30, 45, 60, 90, 120, 180, and 240 min. p.i. The brain, heart, lung, stomach, small intestine (SI), large intestine (LI), liver, kidneys, urinary bladder (UB), spleen, thymus, pancreas, adrenals, and ovaries were dissected, weighed, and the accumulated activity quantified in a gamma-counter (WIZARD Automatic Gamma Counter, PerkinElmer, Waltham, MA, USA) to determine the percentage injected activity (dose) per gram of tissue (%ID/g).
In addition, the sampling time p.i. and %ID/g values were scaled proportionately to human magnitude (please see Equations (1) and (2) in Section 4.4) prior to dose estimation with OLINDA/EXM (Vanderbilt University, Nashville, TN, USA, version 1.0).
For human dosimetry estimation from animal biodistribution and PET/MR imaging, animal organ masses and time scale was extrapolated to human magnitudes. At first, the organ-specific animal %ID data were extrapolated to the human scale with the equation (1) %ID/organhuman=%ID/gmouse · morganhuman · mmouse/mhuman with the fraction of the injected activity in the corresponding human organ = %ID/organhuman , the fraction of injected activity per gram animal organ tissue = %ID/gmouse and morganhuman the mass of the corresponding human organ. At second, a time scale extrapolation is needed due to differences in the metabolic rate using the equation (2) thuman=tmouse{mhuman/mmouse}^0.25 including the human time scale = thuman , the animal time scale = tmouse and the ratio of animal and human body weights = mmouse/mhuman .
The human dosimetry estimation was performed with the data extrapolated as well as the genuine human data using OLINDA/EXM software. The time-activity curves were estimated by exponential fitting and calculating the time integral, which equals the number of disintegrations (NODs) per organ during the observation period normalized to 1 Becquerel administered activity dose. […] Therefore, activity data of the urinary bladder was derived from the image for each time point. In contrast, for humans the activity concentration data of the urinary bladder was obtained in a more direct approach. At first, the activity and volume of urine was determined in the last frame of the PET scan before each micturition. Afterwards, the voided urine was collected, weighed, and the activity of three aliquots (assuming 1 mL = 1 g) determined with a gamma counter, and the activity of the whole sample estimated. The difference between imaged and sampled urine activity is equal to the residue of radioactive urine in the urinary bladder. To calculate the NOD in the human urinary bladder, the time-activity curve is integrated using a trapezoidal equation (3) %ID˜UB=1/2∑i=1n−1(%IDi+%IDi+1)(ti+1−ti) with the fraction of injected activity %IDi at the time ti and the cumulated activity of the urinary bladder i.e., the NOD %ID˜UB .
Furthermore, the NODs of the gastric system were calculated following the ICRP GI model (ICRP 30) as implemented in OLINDA 1.0. The NODs obtained either from the EXM module or the trapezoidal equation were transferred to OLINDA. The OD for the chosen hermaphroditic adult male phantom is estimated following the MIRD scheme. The S values are pre-calculated and implemented for the respective phantom in OLINDA. Subsequently, the ED contribution from each organ is calculated by multiplying the ODs with the respective tissue weighting factors as published by the International Commission on Radiological Protection (ICRP 103 [27]) for each organ. […]

[18F]CC[C@H]1OC2(CCN(Cc3ccccc3)CC2)c2ccccc21 [(R)-(+)-[^18F]fluspidine]
OD Adrenals: 18.6 μSv/MBq
OD Brain: 12.6 μSv/MBq
OD Breasts: 11.3 μSv/MBq
OD Gallbladder Wall: 14.0 μSv/MBq
OD Heart Wall: 22.3 μSv/MBq
OD Kidneys: 27.6 μSv/MBq
OD LLI Wall: 16.4 μSv/MBq
OD Liver: 10.3 μSv/MBq
OD Lungs: 45.5 μSv/MBq
OD Muscle: 7.1 μSv/MBq
OD Osteogenic Cells: 19.1 μSv/MBq
OD Ovaries: 24.9 μSv/MBq
OD Pancreas: 21.7 μSv/MBq
OD Red Marrow: 13.5 μSv/MBq
OD Skin: 8.7 μSv/MBq
OD Small Intestine: 25.1 μSv/MBq
OD Spleen: 17.2 μSv/MBq
OD Stomach Wall: 14.3 μSv/MBq
OD Testes: 10.8 μSv/MBq
OD Thymus: 19.3 μSv/MBq
OD Thyroid: 11.5 μSv/MBq
OD Total Body: 12.2 μSv/MBq
OD ULI Wall: 25.6 μSv/MBq
OD Urinary Bladder Wall: 20.2 μSv/MBq
OD Uterus: 14.9 μSv/MBq
ED Contr. Adrenals: 0.2 μSv/MBq
ED Contr. Brain: 0.1 μSv/MBq
ED Contr. Breasts: 1.4 μSv/MBq
ED Contr. Gallbladder Wall: 0.1 μSv/MBq
ED Contr. Heart Wall: 0.2 μSv/MBq
ED Contr. Kidneys: 0.2 μSv/MBq
ED Contr. LLI Wall: 1.0 μSv/MBq
ED Contr. Liver: 0.4 μSv/MBq
ED Contr. Lungs: 5.5 μSv/MBq
ED Contr. Muscle: 0.1 μSv/MBq
ED Contr. Osteogenic Cells: 0.2 μSv/MBq
ED Contr. Ovaries: 2.0 μSv/MBq
ED Contr. Pancreas: 0.2 μSv/MBq
ED Contr. Red Marrow: 1.6 μSv/MBq
ED Contr. Skin: 0.1 μSv/MBq
ED Contr. Small Intestine: 0.2 μSv/MBq
ED Contr. Spleen: 0.1 μSv/MBq
ED Contr. Stomach Wall: 1.7 μSv/MBq
ED Contr. Thymus: 0.2 μSv/MBq
ED Contr. Thyroid: 0.5 μSv/MBq
ED Contr. ULI Wall: 1.5 μSv/MBq
ED Contr. Urinary Bladder Wall: 0.8 μSv/MBq
ED Contr. Uterus: 0.1 μSv/MBq
ED ICRP 60: 20.1 μSv/MBq
ED: 18.4 μSv/MBq

FCC[C@@H]1OC2(CCN(Cc3ccccc3)CC2)c2ccccc21 [(S)-(−)-[^18F]fluspidine]
OD Adrenals: 36.0 μSv/MBq
OD Brain: 12.4 μSv/MBq
OD Breasts: 11.2 μSv/MBq
OD Gallbladder Wall: 15.5 μSv/MBq
OD Heart Wall: 17.9 μSv/MBq
OD Kidneys: 35.6 μSv/MBq
OD LLI Wall: 19.0 μSv/MBq
OD Liver: 12.5 μSv/MBq
OD Lungs: 30.5 μSv/MBq
OD Muscle: 7.2 μSv/MBq
OD Osteogenic Cells: 19.6 μSv/MBq
OD Ovaries: 17.0 μSv/MBq
OD Pancreas: 26.2 μSv/MBq
OD Red Marrow: 13.6 μSv/MBq
OD Skin: 9.1 μSv/MBq
OD Small Intestine: 31.9 μSv/MBq
OD Spleen: 17.6 μSv/MBq
OD Stomach Wall: 14.8 μSv/MBq
OD Testes: 11.2 μSv/MBq
OD Thymus: 12.0 μSv/MBq
OD Thyroid: 11.7 μSv/MBq
OD Total Body: 12.5 μSv/MBq
OD ULI Wall: 33.3 μSv/MBq
OD Urinary Bladder Wall: 13.9 μSv/MBq
OD Uterus: 15.9 μSv/MBq
ED Contr. Adrenals: 0.3 μSv/MBq
ED Contr. Brain: 0.1 μSv/MBq
ED Contr. Breasts: 1.3 μSv/MBq
ED Contr. Gallbladder Wall: 0.1 μSv/MBq
ED Contr. Heart Wall: 0.2 μSv/MBq
ED Contr. Kidneys: 0.3 μSv/MBq
ED Contr. LLI Wall: 1.1 μSv/MBq
ED Contr. Liver: 0.5 μSv/MBq
ED Contr. Lungs: 3.7 μSv/MBq
ED Contr. Muscle: 0.1 μSv/MBq
ED Contr. Osteogenic Cells: 0.2 μSv/MBq
ED Contr. Ovaries: 1.4 μSv/MBq
ED Contr. Pancreas: 0.2 μSv/MBq
ED Contr. Red Marrow: 1.6 μSv/MBq
ED Contr. Skin: 0.1 μSv/MBq
ED Contr. Small Intestine: 0.3 μSv/MBq
ED Contr. Spleen: 0.2 μSv/MBq
ED Contr. Stomach Wall: 1.8 μSv/MBq
ED Contr. Thymus: 0.1 μSv/MBq
ED Contr. Thyroid: 0.5 μSv/MBq
ED Contr. ULI Wall: 2.0 μSv/MBq
ED Contr. Urinary Bladder Wall: 0.6 μSv/MBq
ED Contr. Uterus: 0.1 μSv/MBq
ED ICRP 60: 17.3 μSv/MBq
ED: 16.7 μSv/MBq
ED (listed as (S)-(−)-[^18F]Fluspidine): 16.7 μSv/MBq
